Test results published in US4550186A, “Binuclear copper (II) carboxylates formed from amine-carboxyboranes” (Duke University, priority 1983, dated 1985).

What was measured:
[1] = tested on: Ehrlich ascites lysate protein synthesis; assay: Initiation/elongation of Ehrlich ascites lysate protein synthesis; assay type: biochemical, mouse; details: compared with pyrocatechol violet and emetine
Description: An in vitro method was used to determine if compound I was an initiation or an elongation inhibitor of Ehrlich ascites lysate protein synthesis by comparing inhibition with known standards, pyrocateochol violet and emetine, using 1 μCi ^3 H-leucine (24.7 Ci/mmol). The reaction medium was spotted on Whatman #1 filter paper disks, which after drying were treated for 10 min in boiling 5% trichloroacetic acid, for 10 min in cold 5% trichloroacetic acid and washed with cold 5% trichloroacetic acid, ether/ethanol (4:1) and ether. The disks were dried and counted.

[2] = tested on: purine de novo synthesis of Ehrlich ascites cells; assay: In vivo formate incorporation into purines; parameters: species or system mouse
Description: (§1) CF1 male mice (~30 g) were implanted with 2×10^6 Ehrlich ascites tumor cells, intraperitoneally on Day 0. Compound I was suspended by homogenation in 0.05% polysorbate.80-water and administered intraperitoneally at 10 and 20 mg/kg for 9 days to determine its effectiveness for inhibition of tumor growth. Mice were sacrificed on Day 10, and the ascites fluid was collected from the peritoneal cavity. The volume and ascrit (packed cell volume) were determined for each animal and the percent inhibition of tumor growth was calculated. For the metabolic studies, mice were treated on Days 8 and 9 with 10 mg/kg of Compound I, intraperitoneally. […]
Carbamyl phosphate synthetase activity was determined using the reaction medium of Kalman et al [Am. […] Citrulline formed from ornithine was measured at 490 nm by the method of Archibald [J. Biol. Chem., 156, 121 (1944)]. […] The ^14 CO2 generated in 15 min was trapped in 1M KOH and counted. Thymidylate synthetase activity was determined using a post-mitochondrial supernatant (9000 g×10 min) and 5 μCi of 5-^3 H-deoxyuridine monophosphate (14 Ci/mmol) according to the method of Kampf et al [ J. Med. Chem., 19, 903 (1976)]. ^14 C-Formate incorporation into purines was determined by the method of Spassova et al [Biochem. Pharmacol., 25, 923 (1976)] using 0.5 μCi of ^14 C-formic acid (52.0 mCi/mmol). […] The Rf value for xanthine monophosphate was scraped and counted. […]

Holtzman male rats = assay: Cholesterol absorption study; assay type: in vivo, rat; details: rats treated 14 days, over a 24-hr period
Description: Holtzman male rats (~400 g) were administered the test drug orally for 14 days at 10 mg/kg/day. On day 13, 10 μCi of 1,2-^3 H(N)-cholesterol (40.7 Ci/mmol) was administered to the rat orally. Twenty-four hours later, the blood was collected and the serum separated by centrifugation. Both the serum and the precipitate were counted.

[3] = tested on: deoxyribonucleic acid synthesis of Ehrlich ascites cells; assay: In vivo thymidine incorporation into deoxyribonucleic acid; parameters: species or system mouse
Description: as §1, with “intraperitoneally. The animal was sacrificed on Day 10 and the ascites fluid harvested.” for “intraperitoneally.”
For in vivo studies, incorporation of thymidine into deoxyribonucleic acid was determined by the method of Chae et al [Proc. Am. […] The deoxyribonucleic acid was isolated and the tritium content was determined in a toluene based scintillation fluid. The deoxyribonucleic acid concentration was determined by the diphenylamine reaction using calf thymus deoxyribonucleic acid as a standard. Uridine incorporation into ribonucleic acid was determined using 10 μCi of 5,6-^3 H-uridine (22.4 Ci/mmol). […] Leucine incorporation into protein was determined by the method of Sartorelli [Biochem. Biophys. […] Protein content was determined by the Lowry procedure using bovine serum albumin as a standard.

[4] = 10 mg/kg/day I.P. on Days 8 and 9

{Cu[(CH3)3 N.BH2 CO2 ]2.(CH3)3 N.BH2 COOH} [Compound I]
inhibition of protein synthesis of Ehrlich ascites lysates (initiation vs elongation) [1]: lag of several minutes before inhibition is observed | 14C-Formate incorporation into purines [2, 4]: 59 ± 6 % Control | Purine de novo synthesis inhibited ([2]; 10 day Ehrlich ascites cells): 41% | adsorption of orally administered 3H-cholesterol reduced (Holtzman male rats): 85% | 3H-Thymidine incorporation into deoxyribonucleic acid [3, 4]: 43 ± 5 % Control | thymidine incorporation into deoxyribonucleic acid inhibited ([3]; 10 day Ehrlich ascites cells): 57%
